The test has as its system male dogs (TOYO Beagle). As to the kind of experiment: Intraocular pressure lowering action after instillation in dogs. Format: in vivo, dog (TOYO Beagle). The note with it: for Time after administration exhibiting maximum intraocular pressure lowering action: 30 μL instillation, measured at 2, 4, 6, 8, 24 h; for Intraocular pressure lowering width 24 hours after administration / Maximum intraocular pressure lowering width: mean ± S.E., n=8, 30 μL instillation, Compound A 3 μg/mL, timolol 0.5% ophthalmic solution; for Maximum intraocular pressure lowering width: maximum of average lowering width over 2, 4, 6, 8, 24 h. The method, then:
Compound A and a β-blocker were used as test substances. Compound A was prepared in a 3 μg/mL solution using a vehicle (an aqueous solution containing 0.3 w/v % sodium citrate, 0.5 w/v % polysorbate 80, and 0.8 w/v % sodium chloride). Timolol (trade name: Timoptol (registered trademark) 0.5% ophthalmic solution, Santen Pharmaceutical Co., Ltd.) was used as a β-blocker.
Approximately one hour before administering the vehicle and a test substance to male dogs (TOYO Beagle, 16 to 42 months old at start of use) that have been sufficiently acclimated in advance, intraocular pressure in both eyes was measured, and the intraocular pressure was set as the intraocular pressure value before instillation. Thereafter, a test substance or the vehicle was administered by instillation into the treated eyes in an amount of 30 μL each, and intraocular pressure in both eyes was measured about 2, 4, 6, 8, and 24 hours after the administration. The intraocular pressure was measured by a pneumatic applanation tonometer (Model 30 Classic, Reichert, Inc.) under the local anesthesia after instilling 0.4% oxybuprocaine hydrochloride (Benoxil (registered trademark) ophthalmic solution 0.4%, Santen Pharmaceutical Co., Ltd.), which is a local anesthetic. The measurement was performed until a stable value was obtained three times successively (a difference between continuously obtained measured values was within 0.5 mmHg).
The value obtained by subtracting the intraocular pressure value at each measurement time from the intraocular pressure value before test substance and vehicle administration was defined as the intraocular pressure lowering width, and the average value of the intraocular pressure lowering width of each individual at each measurement time was defined as the average intraocular pressure lowering width. The maximum value of the average intraocular pressure lowering width at each measurement time was defined as the maximum intraocular pressure lowering width. In addition, the average intraocular pressure lowering width 24 hours after administration was defined as the intraocular pressure lowering width 24 hours after administration. Meanwhile, in the case where there are two drug names in a group name, it means the order of administration. For example, the Compound A-timolol group means that Compound A was administered first, and timolol was administered thereafter into the same eye.

Here are results for two compounds from US20260000635A1, “THERAPEUTIC AGENT FOR GLAUCOMA COMPRISING FP AGONIST AND ß BLOCKER” (ONO PHARMACEUTICAL CO., LTD., priority 2017, published 2026).

For `CC(C)OC(=O)CCC[C@H]1CC[C@@H]2[C@@H](/C=C/[C@@H](O)COc3cc(F)ccc3F)[C@H](O)C[C@@H]2OC1` [Compound A-vehicle, 2-propanyl 4-{(3S,5aR,6R,7R,8aS)-6-[(1E,3R)-4-(2,5-difluorophenoxy)-3-hydroxy-1-buten-1-yl]-7-hydroxyoctahydro-2H-cyclopenta[b]oxepin-3-yl}butanoate], the “Time after administration exhibiting maximum intraocular pressure lowering action” value turned out to be 6 h, the “Intraocular pressure lowering width 24 hours after administration” value is 3.5 ± 0.75 mmHg and the “Maximum intraocular pressure lowering width” value turned out to be 5.8 ± 0.35 mmHg.

Take `CC(C)(C)NC[C@H](O)COc1nsnc1N1CCOCC1` [Vehicle-timolol, timolol]: the “Time after administration exhibiting maximum intraocular pressure lowering action” value was 2 h, the “Intraocular pressure lowering width 24 hours after administration” value is 0.0 ± 0.56 mmHg and the “Maximum intraocular pressure lowering width” value was determined as 2.7 ± 0.56 mmHg.
